# US20050176811A1, “Vitamin combination for providing protection during the chemotherapy and/or radio-therapy of malignant tumours” (priority 2002, published 2005)
# Tests used:
# [1] = tested on: stomach cancer at stage IV; set-up: concentration or dose not given beside the values; conditions: only 5-Fu, control group from older literature; cited from earlier work
# [2] = tested on: white raceless male and female rats; assay: Whole body gamma irradiation of rats at 11.4 Gy, comparison with mexamine; format: in vivo; conditions: radiation dose 11.4 Gy, agent 24 h before irradiation
# Procedure: In order to compare the radiation protection according to the invention with the effect of conventional radiation protective agents white raceless male and female rats weighing from 150 to 180 g (age: 3 months) was subjected to whole body gamma irradiation at a dose of 11.4 Gy, the animals being protected according to the invention by administering the vitamin combination at the above-mentioned dose 24 hours before the irradiation (group I). […] A third group of rats was irradiation without administering a radiation protective agent (group III).
# [3] = tested on: sarcoma 45; conditions: rat, in vivo
compound,measurement,setting,value
"O=c1[nH]cc(F)c(=O)[nH]1 [5-Fu, 5-Fluorouracil]",survival rate (%) after 3 months,[1],86.7%
same,survival rate (%) after 6 months,[1],66.7%
same,survival rate (%) after 9 months,[1],40.0%
same,survival rate (%) after 12 months,[1],20.0%
same,survival rate (%) after 18 months,[1],13.7%
same,survival rate (%) after 22 months,[1],0%
COc1ccc2[nH]cc(CCN)c2c1 [mexamine],average life-span,[2],8.2 ± 4 days
same,days at which 50% of animals are dead,[2],50/8 days
same,days at which 100% of animals are dead,[2],100/13 days
tocopherol [vitamin E],distribution of vitamin E (tocopherol contents in organs),[3],accumulation of this vitamin in the tumour
